Laboratory results published in patent US20060088815A1, “Method for evaluation of endocrine disruptive action” (THE UNIVERSITY OF TOKYO, priority 2004, published 2006).

Test system: hippocampal tissue slice
Experiment: Excitatory postsynaptic potential of hippocampal tissue slices on a multiple-electrode probe; NMDA-induced long-term depression
Type: cell-based, rat
Conditions: substance 1 nM perfused for 30 minutes before NMDA (30 μM, 3 minutes)
Excerpt: Now, an example of a specific embodiment for the above-mentioned evaluating method 1 will be illustrated. First, the preparation of a cell group and a setting method of experimental conditions are explained below. With regard to the cell group, a tissue slice which was a transversely cut in a hippocampal region along a long-axis which was cut out from a brain tissue of an adult rat using a vibratome (DSK ZERO 1; manufactured by Dosaka EM K.K.) was used. Thickness of the hippocampal tissue slice was made 300 μm.
For the measurement of an electrophysiological response of this hippocampal tissue slice, a multiple-electrode measuring apparatus MED 64 System (Alpha Med) was used. With regard to an electrode arranged in the hippocampal tissue slice, a multiple-electrode probe MED-P530A (Alpha Med) attached to this multiple-electrode measuring apparatus was used. On a substrate of this multiple-electrode probe, plural electrodes are previously arranged regularly with a predetermined interval (300 μm).
One sheet of the hippocampal tissue slice cut out by a vibratome was allowed to stand in a chamber placed on a substrate of one multiple-electrode probe and, at the same time, an artificial cerebrospinal fluid sufficiently saturated with a mixed gas of oxygen and carbon dioxide (95% oxygen gas and 5% carbon dioxide gas) was filled in the chamber whereby the hippocampal tissue slice was soaked in the artificial cerebrospinal fluid followed by being allowed to stand at room temperature for 1 hour or longer. With regard to the artificial cerebrospinal fluid, an aqueous solution containing 124 mM of NaCl, 1.25 mM of NaH2PO4.2H2O, 5 mM of KCl, 2 mM of MgSO4.7H2O, 2 mM of CaCl2, 22 mM of NaHCO3 and 10 mM of […] was used.
In this artificial cerebrospinal fluid, the hippocampal tissue slice was placed on the multiple-electrode probe so that the cells included in each of three regions comprising one dentate gyrus and two cornu ammonis regions near the surface of the hippocampal tissue slice were brought into contact with plural electrodes on the multiple-electrode probe. Thus, a stimulating electrode which applies electrical stimulation to presynaptic fiber projecting to the nerve cell group and a recording electrode which records excitatory postsynaptic potential induced by the electrical stimulation in the nerve cell group as accumulated potential are arranged for each of pyramidal cells of cornu ammonis CA1 field, pyramidal cells of cornu ammonis CA3 field and granular cells of dentate gyrus.
Electrical stimulation to a hippocampal tissue slice by a stimulating electrode was carried out by repeated application of electrical stimulation at intervals of 15 seconds in the order of a stimulating electrode arranged in a cornu ammonis CA1 field, a stimulating electrode arranged in a cornu ammonis CA3 field, a stimulating electrode arranges in a dentate gyrus and, again, a stimulating electrode arranged in a cornu ammonis CA1 field. The excitatory postsynaptic potential induced by the electrical stimulation was recorded for about 30 minutes and, after confirming that the accumulated potential was stabilized, strength of electrical stimulation applied from the stimulating electrode was set in each of the following steps. […] When the strength of the measured accumulated potential was saturated (or became constant), the strength of the saturated accumulated potential was defined as maximum (100%) and strength of electrical stimulation to be applied to the hippocampal tissue slice from the stimulating electrode was set so as to make the value 50% of the above maximum value.
In this Example, DES was used as an object substance, estradiol, which is one example of estrogen, was used as an agonist to hormone receptor and NMDA was used as a stimulant. […]

Structure (SMILES) | excitatory postsynaptic potential 50 minutes after administration of NMDA, relative to that before administration of NMDA (cornu ammonis CA1 field) | excitatory postsynaptic potential 50 minutes after administration of NMDA, relative to that before administration of NMDA (cornu ammonis CA3 field) | excitatory postsynaptic potential 50 minutes after administration of NMDA, relative to that before administration of NMDA (dentate gyrus)
C[C@]12CC[C@@H]3c4ccc(O)cc4CC[C@H]3[C@@H]1CC[C@@H]2O [estradiol] | about 40% | about 55% | about 80%
CC/C(=C(/CC)c1ccc(O)cc1)c1ccc(O)cc1 [DES, diethylstilbestrol] | about 40% | about 75% | about 68%
